Measured values reported in patent US8394431B2, “Composition of extracts from plants and the use thereof in prophylaxis or treatment of metabolism disorder of blood lipid” (priority 2008, dated 2013).

Assays:
[1] = tested on: L-O2 Lipoprotein Lipase of Liver Cells (LPL); experiment: LPL activity in L-O2 hepatocytes (colorimetric kit); type: cell-based, human; details: 50.0 μg/ml, normal 12.63 ± 0.67
Method: The L-O2 human normal liver cells were cultured in routine way, various concentrations of FTZCE were respectively added after cells fusion, continuously cultured the cells for a certain time followed by collecting cells to prepare cell homogenates. Using LPL/HL detection kit (Nanjing Jiancheng Biotechnology Research Institute), the LPL/HL activity was detected by colorimetric method to research the effects of various composition of extracts from plants conbination on LPL activity and compare the enzyme activity of hepatocyte LPL/HL under the action of different concentrations of FTZEC. The gene expressions of hepatocyte LPL/HL were determined by RT-PCR method to observe the affects of FTZEC on the hepatocyte LPL/HL gene expression.

[2] = tested on: Dietary hyperlipidemia rats; experiment: Blood lipid of dietary hyperlipemia model in rats; type: in vivo, SD rats; details: serum, dose 3 mg/kg, 8 weeks; for HDL-C: high lipid control 0.71 ± 0.30; for LDL-C: high lipid control 1.43 ± 0.30; for TC: high lipid control 3.32 ± 0.49
Method: Observe the effects of different doses of FTZEC on the serum TC, TG, LDL-C, and HDL-C of hyperlipemia rats.
In addition to ordinary feed in control group, other groups were given high fat emulsion in 10 ml/kg every morning by gavage beside the ordinary feed, and given corresponding drugs 4 hours after feeding, in which the normal group and the model groups were given equal amount of normal saline, administrated for continuous 8 weeks. These animals were fasted for 1 d, when water was given, in the next morning, the blood was taken from orbital veniplex after the last administration, centrifuged and separated the serum to test the TC, TG, HDL-C, LDL-C respectively.

[3] = tested on: Dietary hyperlipidemia New-Zealand female rabbits; experiment: Lipid metabolism of hyperlipidemia New-Zealand female rabbit model; type: in vivo; details: hyperlipidemia unsexed female rabbits, dose 3 mg/kg, gavage, 12 weeks; for HDL-C: model 0.871 ± 0.30; for TG: model 3.98 ± 0.79; for LDL-C: model 11.63 ± 2.30; for TC: model 33.92 ± 3.49; for Ox-LDL: plasma ELISA, model 1.63 ± 0.30
From the text: Purebred New Zealand female rabbits were unsexed and fed with 0.5% cholesterol diet, and intravenously injected with bovine serum albumin to establish the model. The experimental animals were 49 New Zealand Angora purebred female rabbits, 1.8-2.2 kg, 3-4 months old which were provided by Guangdong Province Experimental Animal Center. […] In the sham-operated group, the sham operation was confirmed (cutting a small piece of fat tissues around the ovary), without removing the ovaries. The rabbits were given ordinary commercial feed (120-150 g/d) after surgery. […] In the compound Fufang tiaozhi FTZ group (equal to five times of clinical adult daily dose) and other administration groups, the rabbits were administrated with drugs by gavage. The control group and the model group were fed and administrated by gavage with same volume of normal saline. The body weights were examined at 12 weeks of the experiment. 2 ml blood was taken by the ear artery for blood lipid measurement. The rabbits were fasted for 16 h before each blood sampling. […] The total cholesterol, triglyceride, HDLC and LDLC were detected by automatic biochemical analyzer and the steps were carried out according to the kit instructions. The OX-LDL in plasma was measured by ELISA, according to kit instructions.

HMG-CoA reductase = molecular target: T1, HMG-CoA reductase (Rattus norvegicus, UniProt P51639); experiment: Inhibition of HMG-CoA reductase activity (rat liver cell microsomes); type: biochemical, rats
T1 construct: The rats liver cells microsomes were prepared into HMG-CoA reductase solution; from tissue; host or cells: rat liver cell microsomes
T1 sequence (P51639 1-887): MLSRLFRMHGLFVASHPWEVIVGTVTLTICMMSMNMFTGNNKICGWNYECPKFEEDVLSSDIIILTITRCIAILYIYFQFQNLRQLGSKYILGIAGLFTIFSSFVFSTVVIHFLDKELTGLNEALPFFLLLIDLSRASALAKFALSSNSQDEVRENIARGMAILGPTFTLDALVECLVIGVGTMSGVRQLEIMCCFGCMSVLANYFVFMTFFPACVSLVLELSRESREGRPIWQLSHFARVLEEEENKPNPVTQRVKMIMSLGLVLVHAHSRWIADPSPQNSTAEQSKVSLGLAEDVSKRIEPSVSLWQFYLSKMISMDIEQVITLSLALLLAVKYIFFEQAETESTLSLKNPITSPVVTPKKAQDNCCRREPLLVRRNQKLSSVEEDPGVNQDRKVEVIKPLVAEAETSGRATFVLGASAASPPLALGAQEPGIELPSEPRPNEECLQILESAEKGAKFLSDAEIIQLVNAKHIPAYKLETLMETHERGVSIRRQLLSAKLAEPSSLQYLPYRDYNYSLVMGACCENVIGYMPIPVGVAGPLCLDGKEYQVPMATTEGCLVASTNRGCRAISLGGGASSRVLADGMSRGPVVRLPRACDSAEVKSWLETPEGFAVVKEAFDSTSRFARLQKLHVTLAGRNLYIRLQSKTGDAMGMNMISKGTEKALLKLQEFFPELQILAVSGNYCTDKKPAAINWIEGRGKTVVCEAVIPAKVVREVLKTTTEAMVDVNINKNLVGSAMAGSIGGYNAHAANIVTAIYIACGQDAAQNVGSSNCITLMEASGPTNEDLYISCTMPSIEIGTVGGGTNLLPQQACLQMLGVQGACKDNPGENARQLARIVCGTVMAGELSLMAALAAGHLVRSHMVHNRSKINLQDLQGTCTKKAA
Method: Test the effects of various FTZEC conbination in vitro experiment on inhibiting HMGCoA reductase activity and calculate the IC50 of the composition of extracts from plants on inhibition of HMGCoA reductase and compare with pravastatin.
The rats liver cells microsomes were prepared into HMG-CoA reductase solution. The activities of the HMG-CoA reductase were determined by literature method. The enzyme activity in each group was respectively determined to calculate the IC50 (μg/ml) of FTZEC on HMG-CoA reductase activity.

[4] = tested on: hypercholesterolemic patients; experiment: Clinical validation in hyperlipemia patients: blood lipids and efficacy rate; type: in vivo, human; details: patients n = 30, one tablet twice a day, 2 months
Method: 60 cases with hyperlipemia treated by FTZEC were analyzed, using the tablets obtained in Experiment 1. The experiment was confirmed according to Principles for Clinical Study of New Chinese Medicines in hyperlipemia, Ministry of Health of the People's Republic of China. 60 cases were in-patients or out-patients with hyperlipidemia diagnosed according to diagnostic criteria (1985), of which 40 cases were outpatients and 20 cases were in-patients; the patients were randomly divided into two groups, the treatment group and the control group. […] All patients accepted hyperlipidemia education, diet control, and regular exercise. […] 5.2 Efficiency standard of blood lipid Clinical control: the experimental examination returned to normal. Marked effective: the blood lipid detection achieved any one of the following indexes: […] Effective: the blood lipid detection achieved any one of the following indexes: […] Note: when determine the efficacy of the complicated hyperlipidemia, if the two indicators were not consistent, the lower efficacy was determined as the final result.

Work on `CC(C)OC(=O)C(C)(C)Oc1ccc(C(=O)c2ccc(Cl)cc2)cc1` [Fenofibrate] yielded an LPL activity [1] of 16.95 ± 3.02 g FFA/mL supernatant · h, an HDL-C [2] of 1.22 ± 0.43 mmol/L and an LDL-C [2] of 0.89 ± 0.42 mmol/L. It also gave a TC [2] of 2.85 ± 0.45 mmol/L, an HDL-C [3] of 1.06 ± 0.26 mmol/L and a TG [3] of 1.88 ± 0.82 mmol/L. The LDL-C [3] was 4.99 ± 2.25 mmol/L, the TC [3] was 19.89 ± 2.62 mmol/L and the Ox-LDL [3] was 0.99 ± 0.25 mmol/L.
`CC[C@H](C)C(=O)O[C@H]1C[C@@H](C)C=C2C=C[C@H](C)[C@H](CC[C@@H]3C[C@@H](O)CC(=O)O3)[C@H]21` [Lovastatin] was tested, and the HDL-C [2] was 0.96 ± 0.26 mmol/L, the LDL-C [2] was 0.91 ± 0.25 mmol/L and the TG ([2]; high lipid control 3.28 ± 0.79) was 2.08 ± 0.82 mmol/L. It also gave a TC [2] of 2.29 ± 0.32 mmol/L.
For `CC[C@H](C)C(=O)O[C@H]1C[C@H](O)C=C2C=C[C@H](C)[C@H](CC[C@@H](O)C[C@@H](O)CC(=O)O)[C@H]21` [Pravastatin], the IC50 (HMG-CoA reductase) was 4.36 µM, the HDL-C [3] was 1.36 ± 0.28 mmol/L and the TG [3] was 2.08 ± 0.82 mmol/L. For the same molecule, the LDL-C [3] was 10.29 ± 2.27 mmol/L, the TC [3] was 12.69 ± 3.62 mmol/L and the Ox-LDL [3] was 1.29 ± 0.27 mmol/L. The “Effective Cases” value [4] was 15, the “Effective Rate %” value [4] was 50.0% and the “Invalid Cases” value [4] was 4. The “Invalid Rate %” value [4] was 13.3%, the “Marked effective Cases” value [4] was 11 and the “Marked effective Rate %” value [4] was 36.7%. For the same molecule, the “Total effective rate %” value [4] was 86.7%.
